Measured values: patent US5670479A, “α-ketoamide derivatives as inhibitors of thrombosis” (Corvas International, Inc., priority 1994, dated 1997)

Columns and labels:
[1] = molecular target: a-thrombin (Homo sapiens, UniProt P00734); assay: Amidolytic thrombin assay (inhibitor constant Ki, Ki*); assay type: biochemical; parameters: Purified human a-thrombin; purchased Enzyme Research Laboratories, Inc; settings: human a-thrombin 0.25 nM, Pefachrome t-PA substrate, HBSA pH 7.5
Procedure: The ability of the compounds of the present invention to act as inhibitors of thrombin catalytic activity in comparison to Hirulog-1 (compound 25) was assessed by determining their inhibition constant, Ki.
Enzyme activity was determined using the chromogenic substrate Pefachrome t-PA (CH3 SO2 -D-hexahydrotyrosine-glycyl-L-arginine-p-nitroaniline, obtained from Pentapharm Ltd.). The substrate was reconstituted in deionized water prior to use.
Ki values were determined for test compounds using the following methodologies:
The assay was conducted by combining in appropriate wells of a Corning microtiter plate, […], […] of the test compound at a specified concentration diluted in HBSA (or HBSA alone for Vo(uninhibited velocity) measurement), and 50 mL of the chromogenic substrate diluted in HBSA. […] Velocities of Pefachrome-tPA substrate hydrolysis which occurred over a 40 minute time period was measured by the change in absorbance at 405 nm using a Thermo Max® Kinetic Microplate Reader. […]
The initial velocity of Pefachrome t-PA hydrolysis was measured by the change in absorbance at 405 nm using a Thermo Max® Kinetic Microplate Reader over a 2 minute period in which less than 5% of the added substrate was utilized. […]
Ki* was determined by fitting Vs/Vo verses [I] using Equation 1 by non-linear regression analysis. […]

[2] = test system: washed human platelets; assay: Thrombin-induced aggregation in washed human platelets; assay type: cell-based
Procedure: Washed human platelets were prepared from freshly isolated venous blood obtained from normal, healthy volunteers who had not taken any medication which might affect platelet function, according to the procedure of Connolly, T. M. et al., J. Biol. Chem., 267: 6893. (1992). Inhibitors, were added in a volume of […] to […] of prewarmed washed platelets in a siliconized glass cuvette (Chronolog Corp., Hayertown, Pa.) followed by […] of 0.25M CaCl2. The rate and extent of aggregation were measured for 5-15 minutes by the change in light transmission in a stirred cuvette, following the addition of […] of a-thrombin (final concentration 2 nM), using a Chronolog Whole Blood Aggregometer equipped with the Aggro/Link data acquisition system (Chronolog Corp., Hayertown, Pa.).

[3] = molecular target: thrombin (Homo sapiens, UniProt P00734); settings: reported in literature; cited from earlier work
[4] = test system: baboons; settings: baboon; dose which gives a 50% inhibition of platelet deposition; other direct antithrombins evaluated earlier in this model; cited from earlier work
[5] = test system: Male Harlan Sprague Dawley rats; assay: Venous stasis model in rats; assay type: in vivo; settings: rat; for % Clot: mean ± S.E.M.
Procedure: This is one of the most commonly used models in the evaluation of antithrombotic compounds. Hladovec, J. Thromb. […] Talbot, M. D., et. al., Thromb.
Male Harlan Sprague Dawley rats (420-450 g) were acclimated at least 72 hours prior to use. The animals were fasted for 12 hours prior to surgery with free access to water. The animals were anesthetized with a sodium pentobarbital (Nembutal) given intraperitoneally at a dose of 50 mg/kg body weight and placed on a isothermal pad to maintain body temperature. The level of anesthesia was monitored every 15 minutes by: neuro-response to a tail pinch, respiration and body core temperature. The desired depth of surgical anesthesia was maintained by administering subsequent doses (5 mg/kg) intravenously. The left femoral artery was catheterized with polyethylene tubing (PE50) using standard procedures for blood pressure monitoring and blood sampling. The left and right femoral veins were catheterized with PE50 tubing for delivery of anesthetic and test compounds respectively.
Blood pressure, heart rate, core temperature and respiration were monitored continuously.
The abdomen of the animals is opened by making a vertical midline incision followed by isolation of the IVC using dissection. The segment extends from below the renal to above the iliac vessels (about 2 cm in length). The peripheral blood vessels are tied off and a ligature is loosely placed at the distal and proximal ends of the isolated segment. Rabbit brain thromboplastin (RBT)(Sigma Chemical Co., St. Louis Mo.) is prepared by resuspending the contents of the vial with 2 mL of sterile saline pre-warmed to 37° C. At the end of the 30 minute infusion period, RBT is systemically administered as a bolus injection (1.5 mL/kg) via the femoral catheter. Stasis is induced within the isolated IVC segment by securing the proximal and distal ligature 10 sec following the administration of the RBT. Following a 30 minute period of stasis the tied off IVC segment is removed and the contents weighed. Clot formation was defined as %clot: [Weight of the isolated clot/(Weight of the intact segment-the weight of the empty segment)] ×100. This method was used to correct for slight differences in segment size and fluid content.
Following termination of the experiment the animal was euthanized with a 120 mg/kg dose of Nembutal.

Substance: (D-Phe)-Pro-Arg-Pro-(Gly)4 -Asn-Gly-Asp-Phe-Glu-Glu-Ile-Pro-Glu-Glu-Tyr-Leu-OH [Hirulog-1]
- Ki [1]: 0.437 nM
- persistence of inhibition of aggregation over the 15 minute assay ([2]; 20 nM (compound 8), same or higher concentrations (Hirulog-1), FIG. 4): did not cause sustained inhibition
- IC50 ([2]; a-thrombin 2 nM, extent of aggregation over 1 minute, mean ± SD of three): 16 ± 3 nM
- Ki [3]: 2.56 nM
- Antithrombotic Effects ED50 [4]: 125 nmol/kg/min
- % Clot ([5]; 0.1 mg/kg i.v. bolus + 40 mg/kg/min i.v. infusion): 25.75 ± 3.71%
- % Clot ([5]; 0.1 mg/kg i.v. bolus + 60 mg/kg/min i.v. infusion): 26.50 ± 3.59%
- % Clot ([5]; 0.1 mg/kg i.v. bolus + 80 mg/kg/min i.v. infusion): 25.75 ± 0.41%
- effect on venous thrombus formation induced by stasis and thromboplastin ([5]; summary in words): did not have any effect
